Measured values: ChEMBL document CHEMBL1201862, “PubChem BioAssay data set” (2004)
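In this assay, cells in 96-well plates receive the compound at five concentrations for 48 hours. Endpoints are linearly interpolated between the surrounding concentrations. At the GI50, growth is halved.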 Calls of active or inactive are those of the source. Cut-off read from the data, not from the text of the source: active = GI50 up to about 1.1 µM and inactive = higher.

Experiments:
Assay in all cases: NCI-60 cell line screen, 48 h
OVCAR-5 = test system: OVCAR-5
RPMI-8226 = test system: RPMI-8226
IGROV-1 = test system: IGROV-1
RXF 393 = test system: RXF 393
A549 = test system: A549
NCI-H460 = test system: NCI-H460
LOX IMVI = test system: LOX IMVI
CCRF-CEM = test system: CCRF-CEM
HOP-62 = test system: HOP-62
NCI-H226 = test system: NCI-H226
BT-549 = test system: BT-549
COLO 205 = test system: COLO 205
SNB-19 = test system: SNB-19
HOP-92 = test system: HOP-92
A498 = test system: A498
SN12C = test system: SN12C
SW-620 = test system: SW-620
HCC 2998 = test system: HCC 2998
SR = test system: SR

SMILES	GI50 (OVCAR-5)	GI50 (RPMI-8226)	GI50 (IGROV-1)	GI50 (RXF 393)	GI50 (A549)	GI50 (NCI-H460)	GI50 (LOX IMVI)	GI50 (CCRF-CEM)	GI50 (HOP-62)	GI50 (NCI-H226)	GI50 (BT-549)	GI50 (COLO 205)	GI50 (SNB-19)	GI50 (HOP-92)	GI50 (A498)	GI50 (SN12C)	GI50 (SW-620)	GI50 (HCC 2998)	GI50 (SR)
O=c1ccc2nc3ccc(O)cc3oc-2c1	> 100 µM (inactive)	3.3 µM (inactive)	39.5 µM (inactive)	> 100 µM (inactive)	4.27 µM (inactive)	12 µM (inactive)	2.75 µM (inactive)	34 µM (inactive)	17 µM (inactive)	27.8 µM (inactive)	7.24 µM (inactive)	6.25 µM (inactive)	38.6 µM (inactive)	> 100 µM (inactive)	35.2 µM (inactive)	> 100 µM (inactive)	13.2 µM (inactive)	25.6 µM (inactive)	
O=C(NC1(C(=O)O)CCCC1)c1ccccc1	> 100 µM (inactive)	> 100 µM (inactive)	> 100 µM (inactive)	> 100 µM (inactive)	> 100 µM (inactive)	> 100 µM (inactive)	> 100 µM (inactive)	> 100 µM (inactive)	> 100 µM (inactive)	> 100 µM (inactive)	> 100 µM (inactive)	> 100 µM (inactive)	> 100 µM (inactive)	> 100 µM (inactive)	> 100 µM (inactive)	> 100 µM (inactive)	> 100 µM (inactive)	> 100 µM (inactive)	
O=C(O)CCSCc1ccc(I)cc1	> 100 µM (inactive)	> 100 µM (inactive)	> 100 µM (inactive)	96.4 µM (inactive)	> 100 µM (inactive)	> 100 µM (inactive)	> 100 µM (inactive)	> 100 µM (inactive)	> 100 µM (inactive)	> 100 µM (inactive)	> 100 µM (inactive)	> 100 µM (inactive)	> 100 µM (inactive)	> 100 µM (inactive)	> 100 µM (inactive)	> 100 µM (inactive)	> 100 µM (inactive)	> 100 µM (inactive)	
CCCCN(c1ccccc1)c1ncnc2c1cnn2C	47.4 µM (inactive)	14.3 µM (inactive)	34.7 µM (inactive)	23.4 µM (inactive)	51.2 µM (inactive)	31.6 µM (inactive)	46.3 µM (inactive)	21.3 µM (inactive)	38.8 µM (inactive)	> 100 µM (inactive)	20.3 µM (inactive)	> 100 µM (inactive)	89.9 µM (inactive)	25.7 µM (inactive)	23.3 µM (inactive)	65 µM (inactive)	29.2 µM (inactive)	36.8 µM (inactive)	
CC(C)(C)NC(NC(C)(C)C)=C(/C=C(/Cl)[N+](=O)[O-])[N+](=O)[O-]	> 100 µM (inactive)	67.3 µM (inactive)	51.8 µM (inactive)	> 100 µM (inactive)	25.7 µM (inactive)	52.2 µM (inactive)	> 100 µM (inactive)	67.8 µM (inactive)	> 100 µM (inactive)	> 100 µM (inactive)		26.4 µM (inactive)	> 100 µM (inactive)	> 100 µM (inactive)	> 100 µM (inactive)	> 100 µM (inactive)		62.1 µM (inactive)	32.6 µM (inactive)
CC(=O)/N=C1\N/C(=C\c2ccc(Cl)cc2)C(=O)N1/C=C1\C(=O)Oc2ccccc2C1=O	> 100 µM (inactive)	> 100 µM (inactive)	> 100 µM (inactive)	> 100 µM (inactive)	> 100 µM (inactive)	> 100 µM (inactive)	> 100 µM (inactive)	> 100 µM (inactive)	> 100 µM (inactive)	> 100 µM (inactive)		> 100 µM (inactive)	> 100 µM (inactive)		10.8 µM (inactive)	> 100 µM (inactive)	> 100 µM (inactive)	> 100 µM (inactive)	52.2 µM (inactive)
CC(C)C(/C=C/c1ccc(Cl)cc1)=N\NC(=S)NN	30.9 µM (inactive)	11.7 µM (inactive)	20.2 µM (inactive)	15 µM (inactive)	31.6 µM (inactive)	5.26 µM (inactive)	7.76 µM (inactive)	2.68 µM (inactive)	31.6 µM (inactive)	10.4 µM (inactive)	23.1 µM (inactive)	24.2 µM (inactive)	76.4 µM (inactive)		23.8 µM (inactive)	14.1 µM (inactive)	14.1 µM (inactive)	44.2 µM (inactive)	
O=C1/C(=c2\s/c(=C\c3ccccc3)c(=O)n2-c2ccccc2)SC(=S)N1c1ccccc1	> 100 µM (inactive)	56.8 µM (inactive)	25 µM (inactive)	34 µM (inactive)	34.8 µM (inactive)	41 µM (inactive)	26.9 µM (inactive)	32.8 µM (inactive)		25.5 µM (inactive)		63.5 µM (inactive)	46.1 µM (inactive)	33 µM (inactive)	39.2 µM (inactive)	35.6 µM (inactive)	93.3 µM (inactive)	70.5 µM (inactive)	10.7 µM (inactive)
CC(C)(NO)/C(=N\O)c1ccco1	> 100 µM (inactive)	> 100 µM (inactive)	> 100 µM (inactive)	> 100 µM (inactive)	> 100 µM (inactive)	> 100 µM (inactive)	> 100 µM (inactive)		> 100 µM (inactive)	> 100 µM (inactive)		> 100 µM (inactive)	> 100 µM (inactive)	> 100 µM (inactive)		> 100 µM (inactive)	> 100 µM (inactive)	> 100 µM (inactive)	> 10 µM (inactive)
CN(C)CCNC(=O)c1cccc2nc3ccc4cccnc4c3nc12	0.916 µM (active)		0.359 µM (active)	0.167 µM (active)	0.284 µM (active)	0.0565 µM (active)	0.24 µM (active)	0.213 µM (active)	0.393 µM (active)	0.319 µM (active)		0.232 µM (active)	0.362 µM (active)	0.351 µM (active)	0.214 µM (active)	0.172 µM (active)	0.0675 µM (active)	0.635 µM (active)	
c1ccc(C2=NOC3C4CCC(C4)C23)cc1 (stereo not drawn)	> 100 µM (inactive)	> 100 µM (inactive)	> 100 µM (inactive)		> 100 µM (inactive)	> 100 µM (inactive)		> 100 µM (inactive)	> 100 µM (inactive)	> 100 µM (inactive)		> 100 µM (inactive)	> 100 µM (inactive)	> 100 µM (inactive)	> 100 µM (inactive)	> 100 µM (inactive)	> 100 µM (inactive)	> 100 µM (inactive)	> 100 µM (inactive)
O=c1c2c(nc3[nH]ccn13)CCCC2	> 10 µM (inactive)	> 10 µM (inactive)	> 10 µM (inactive)	> 10 µM (inactive)	> 10 µM (inactive)	> 10 µM (inactive)	> 10 µM (inactive)	> 10 µM (inactive)	> 10 µM (inactive)	> 10 µM (inactive)		> 10 µM (inactive)	> 10 µM (inactive)		> 10 µM (inactive)	> 10 µM (inactive)	> 10 µM (inactive)	> 10 µM (inactive)	> 10 µM (inactive)
O=c1cc(-c2ccccc2)[nH]c2cc(F)cc(F)c12	43.5 µM (inactive)	30.1 µM (inactive)	37.8 µM (inactive)	29.2 µM (inactive)	20.8 µM (inactive)	28.3 µM (inactive)	55.8 µM (inactive)	61.7 µM (inactive)	26.5 µM (inactive)	20.9 µM (inactive)		16.1 µM (inactive)		41.6 µM (inactive)		52.5 µM (inactive)	14.4 µM (inactive)		3.75 µM (inactive)
CN(C)c1ccc2nc(CC(O)(C(F)(F)F)C(F)(F)F)ccc2c1	> 10 µM (inactive)	> 10 µM (inactive)	> 10 µM (inactive)	> 10 µM (inactive)	> 10 µM (inactive)	> 10 µM (inactive)	> 10 µM (inactive)	> 10 µM (inactive)	> 10 µM (inactive)	> 10 µM (inactive)	> 10 µM (inactive)	> 10 µM (inactive)	> 10 µM (inactive)	> 10 µM (inactive)	> 10 µM (inactive)	> 10 µM (inactive)	> 10 µM (inactive)	> 10 µM (inactive)	
CN[C@@H](C)[C@H](N)c1ccccc1		> 100 µM (inactive)	> 100 µM (inactive)	> 100 µM (inactive)	> 100 µM (inactive)	> 100 µM (inactive)	> 100 µM (inactive)	> 100 µM (inactive)		> 100 µM (inactive)		> 100 µM (inactive)		> 100 µM (inactive)	> 100 µM (inactive)	> 100 µM (inactive)	> 100 µM (inactive)	> 100 µM (inactive)	
CNc1ccc(-c2nc3cc(C)ccc3o2)cc1	> 100 µM (inactive)	> 100 µM (inactive)	> 100 µM (inactive)	22.4 µM (inactive)	> 100 µM (inactive)	> 100 µM (inactive)	> 100 µM (inactive)	> 100 µM (inactive)	19.9 µM (inactive)	45.3 µM (inactive)	45.8 µM (inactive)	> 100 µM (inactive)	57.5 µM (inactive)	84.9 µM (inactive)	27.4 µM (inactive)	> 100 µM (inactive)	> 100 µM (inactive)	> 100 µM (inactive)	
NC(=O)CN1C=CCC(C(N)=O)=C1 [CARICOTAMIDE]	> 100 µM (inactive)	> 100 µM (inactive)	> 100 µM (inactive)	> 100 µM (inactive)	> 100 µM (inactive)	> 100 µM (inactive)	> 100 µM (inactive)	> 100 µM (inactive)	> 100 µM (inactive)	> 100 µM (inactive)	> 100 µM (inactive)	> 100 µM (inactive)	> 100 µM (inactive)	> 100 µM (inactive)	> 100 µM (inactive)	> 100 µM (inactive)	> 100 µM (inactive)	> 100 µM (inactive)	
